From PMC6002460, “Pharmacological evaluation of new constituents of “Spice”: synthetic cannabinoids based on indole, indazole, benzimidazole and carbazole scaffolds” (Forensic Toxicology, 2018)
Read-outs that look alike come from different tables or passages of the source.

Assays:
human CB1 receptor = target: T1, human CB1 receptor (Homo sapiens, UniProt P21554); experiment: biochemical; assay type: binding; conditions: [3H]CP55,940 0.1 nM, CHO cell membranes; read-out: Ki ± SEM Human CB1
T1 construct: expressed in transfected cells; host or cells: CHO cells (membrane preparations)
T1 sequence (P21554 whole entry): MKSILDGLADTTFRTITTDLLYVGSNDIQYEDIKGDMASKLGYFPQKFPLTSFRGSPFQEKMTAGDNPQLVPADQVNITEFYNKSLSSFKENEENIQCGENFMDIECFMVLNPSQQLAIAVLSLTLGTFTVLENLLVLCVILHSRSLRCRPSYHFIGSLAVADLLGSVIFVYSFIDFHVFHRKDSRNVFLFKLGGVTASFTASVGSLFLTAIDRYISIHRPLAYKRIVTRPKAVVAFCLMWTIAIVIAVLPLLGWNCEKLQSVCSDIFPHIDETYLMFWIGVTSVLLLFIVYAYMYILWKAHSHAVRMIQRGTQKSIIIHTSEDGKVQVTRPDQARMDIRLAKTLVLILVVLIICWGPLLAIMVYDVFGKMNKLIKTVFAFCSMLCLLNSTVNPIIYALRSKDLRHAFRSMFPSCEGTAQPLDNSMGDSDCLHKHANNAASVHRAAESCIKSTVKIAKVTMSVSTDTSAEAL

human CB2 receptor = target: T2, human CB2 receptor (Homo sapiens, UniProt P34972); experiment: biochemical; assay type: binding; conditions: [3H]CP55,940 0.1 nM, CHO cell membranes; read-out: Ki ± SEM Human CB2
T2 construct: expressed in transfected cells; host or cells: CHO cells (membrane preparations)
T2 sequence (P34972 whole entry): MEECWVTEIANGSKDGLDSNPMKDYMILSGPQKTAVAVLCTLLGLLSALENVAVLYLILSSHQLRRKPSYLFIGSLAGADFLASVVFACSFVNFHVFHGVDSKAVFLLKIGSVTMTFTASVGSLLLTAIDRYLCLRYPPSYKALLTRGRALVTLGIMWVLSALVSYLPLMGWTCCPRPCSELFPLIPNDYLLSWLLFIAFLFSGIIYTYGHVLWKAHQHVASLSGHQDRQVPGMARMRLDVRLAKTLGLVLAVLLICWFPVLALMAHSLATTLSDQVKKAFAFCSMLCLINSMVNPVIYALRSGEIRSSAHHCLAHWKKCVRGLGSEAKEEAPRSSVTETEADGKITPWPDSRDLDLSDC

human GPR55 = target: T3, human GPR55 (Homo sapiens, UniProt Q9Y2T6); experiment: β-Arrestin PathHunter assay, recombinant CHO cells expressing GPR55; assay type: cell-based; conditions: for Human GPR55 % activation / Human GPR55 % inhibition: value in parentheses; for Human GPR55 % inhibition: antagonist mode versus LPI 1 µM
T3 construct: host or cells: CHO cells
T3 sequence (Q9Y2T6 whole entry): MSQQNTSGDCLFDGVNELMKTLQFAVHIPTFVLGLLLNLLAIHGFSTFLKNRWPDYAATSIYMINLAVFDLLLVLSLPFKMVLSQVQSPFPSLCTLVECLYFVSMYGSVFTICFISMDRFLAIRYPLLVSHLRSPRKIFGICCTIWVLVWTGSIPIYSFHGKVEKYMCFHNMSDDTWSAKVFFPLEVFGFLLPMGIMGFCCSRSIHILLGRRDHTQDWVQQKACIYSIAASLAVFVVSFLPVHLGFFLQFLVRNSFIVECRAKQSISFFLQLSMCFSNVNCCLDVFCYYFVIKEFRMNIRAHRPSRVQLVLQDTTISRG
Protocol: (§1) β-Arrestin assays were performed in recombinant CHO cells expressing either the human GPR18 or the human GPR55 as described before using the β-galactosidase enzyme fragment complementation technology (β-arrestin PathHunter™ assay; DiscoverX, Fremont, CA, USA).
(§2) The orphan receptors GPR18 and GPR55 can interact with certain natural and synthetic cannabinoids. […] Therefore, we investigated the new series of indole, indazole, benzimidazole and carbazole-derived structures in β-arrestin assays at GPR18 and GPR55 (Table 2). […] For the lipophilic substitutions, the following rank order of potency was observed: ethyl > methyl > chloro > fluoro. Therefore, it can be concluded that a lipophilic substitution in position 4 of the naphthyl residue was a requirement for GPR55 inhibition.

human GPR18 = target: T4, human GPR18 (Homo sapiens, UniProt Q14330); experiment: β-Arrestin PathHunter assay, recombinant CHO cells expressing GPR18; assay type: cell-based; conditions: for Human GPR18 % activation / Human GPR18 % inhibition: value in parentheses
T4 construct: host or cells: CHO cells
T4 sequence (Q14330 1-331): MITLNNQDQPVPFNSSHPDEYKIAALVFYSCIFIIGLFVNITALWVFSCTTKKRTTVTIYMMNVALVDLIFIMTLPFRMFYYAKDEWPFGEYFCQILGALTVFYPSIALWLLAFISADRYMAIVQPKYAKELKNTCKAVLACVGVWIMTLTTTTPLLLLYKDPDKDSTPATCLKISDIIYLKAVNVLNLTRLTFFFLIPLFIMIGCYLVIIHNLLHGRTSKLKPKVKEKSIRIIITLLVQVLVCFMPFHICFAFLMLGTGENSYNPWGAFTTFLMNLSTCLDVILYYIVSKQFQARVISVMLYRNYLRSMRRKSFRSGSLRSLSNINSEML
Protocol: as §1, §2

CB1 receptor = conditions: membrane potential assay, cited from earlier work
CB2 receptor = conditions: membrane potential assay, cited from earlier work

SMILES | Ki (human CB1 receptor) [nM] | Ki (human CB2 receptor) [nM] | EC50 (human GPR55) [nM] | IC50 (human GPR55) [nM] | Human GPR55 % activation (human GPR55; agonist mode) | EC50 (human GPR18) [nM] | IC50 (human GPR18) [nM] | Human GPR18 % activation (human GPR18; agonist mode) [%] | Human GPR18 % inhibition (human GPR18; antagonist mode) | EC50 (CB1 receptor; ref Banister et al. [38]) [nM] | EC50 (CB2 receptor; ref Banister et al. [38]) [nM] | Human GPR55 % inhibition (human GPR55) [%] | EC50 (CB1 receptor; ref Banister et al. [42]) [nM] | EC50 (CB2 receptor; ref Banister et al. [42]) [nM] | EC50 (human GPR55; agonist mode, read-out: Human GPR55 EC50) [nM] | IC50 (human GPR55; antagonist mode versus lysophosphatidylinositol (LPI, 1 µM), read-out: Human GPR55 IC50) [nM] | EC50 (human GPR18; agonist mode, read-out: Human GPR18 EC50) [nM] | IC50 (human GPR18; antagonist mode, read-out: Human GPR18 IC50) [nM]
CC(C)[C@H](NC(=O)c1nn(CCCCCCl)c2ccccc12)C(N)=O [compound 17, 5Cl-AB-PINACA] | 4.06 ± 1.95 | 12 ± 1.7 | > 10000 | > 10000 | 17% | > 10000 | > 10000 | 4 | 0% | – | – | – | – | – | – | – | – | –
COC(=O)[C@@H](NC(=O)c1cn(CC2CCCCC2)c2ccccc12)C(C)(C)C [compound 13, MDMB-CHMICA] | 0.41 ± 0.141 | 0.354 ± 0.05 | > 10000 | > 10000 | 5% | > 10000 | 14100 ± 3100 | 5 | – | 10 | 71 | 38 | – | – | – | – | – | –
O=C(c1ccc(Cl)c2ccccc12)c1cn(CCCCCF)c2ccccc12 [compound 37, Cl-2201] | 0.772 ± 0.101 | 1.18 ± 0.19 | > 10000 | 7120 ± 1260 | – | > 10000 | > 10000 | 16 | 4% | – | – | – | – | – | – | – | – | –
CC(C)(C)[C@H](NC(=O)c1nn(Cc2ccc(F)cc2)c2ccccc12)C(N)=O [compound 24, ADB-FUBINACA] | – | 0.339 ± 0.059 | > 10000 | > 10000 | 7% | > 10000 | > 10000 | 7 | 16% | – | – | – | 1.2 | 3.5 | – | – | – | –
CCCCCn1cc(C(=O)N[C@H](C(=O)OC)C(C)C)c2ccccc21 [compound 5, MMB-018] | 15.1 ± 5.9 | 14 ± 0.8 | > 10000 | > 10000 | 5% | > 10000 | > 10000 | 13 | – | – | – | 5 | – | – | – | – | – | –
CC(C)[C@H](NC(=O)c1cn(CCCCCF)c2ccccc12)C(N)=O [compound 15, 5F-AB-PICA] | 35 ± 7.7 | 89 ± 33.2 | > 10000 | > 10000 | > 10 (10%) | > 10000 | > 10000 | 23 | – | – | – | – | 5.2 | 8.9 | – | – | – | –
CCCCCn1c2ccccc2c2cc(C(=O)c3cccc4ccccc34)ccc21 [compound 39, EG-018] | – | 2.27 ± 0.38 | – | – | 0% | – | – | 2 | – | – | – | 1 | – | – | > 10000 | > 10000 | > 10000 | > 10000
NC(=O)[C@H](Cc1ccccc1)NC(=O)c1nn(CCCCCF)c2ccccc12 [compound 28, PX-2] | 127 ± 43 | 17.4 ± 1.4 | > 10000 | > 10000 | 16% | > 10000 | > 10000 | – | 15% | – | – | – | – | – | – | – | – | –
NC(=O)[C@H](Cc1ccccc1)NC(=O)c1cn(CCCCCF)c2ccccc12 [compound 27, PX-1] | 485 ± 117 | 164 ± 17 | > 10000 | > 10000 | 6% | > 10000 | > 10000 | 15 | – | – | – | 1 | – | – | – | – | – | –
O=C(c1cccc2ccccc12)c1cn(Cc2ccc(F)cc2)c2ccccc12 [compound 35, FUB-JWH-018] | 3.27 ± 1.76 | 1.34 ± 0.48 | > 10000 | > 10000 | 7% | > 10000 | > 10000 | 20 | 30% | – | – | 30 | – | – | – | – | – | –
CC(C)[C@H](NC(=O)c1nn(CCCCCF)c2ccccc12)C(N)=O [compound 16, 5F-AB-PINACA] | 4.96 ± 1.37 | 3.77 ± 0.25 | > 10000 | > 10000 | 15% | > 10000 | > 10000 | 12 | > 10 (10%) | – | – | – | 0.48 | 2.6 | – | – | – | –
CC[C@H](C)[C@H](NC(=O)c1nn(CCCCCF)c2ccccc12)C(N)=O (single isomer, unassigned; isomer 2) [compound 26, 5F-ADB-PINACA-isomer 2] | 3.1 ± 1.53 | 4.28 ± 2.86 | > 10000 | > 10000 | 2% | > 10000 | > 10000 | 8 | – | – | – | – | – | – | – | – | – | –
COC(=O)[C@@H](OC(=O)c1nn(CC2CCCCC2)c2ccccc12)C(C)(C)C [compound 34] | 10.4 ± 7.4 | 1.11 ± 0.14 | > 10000 | 9290 ± 1700 | 1% | > 10000 | 12600 ± 3500 | 0 | – | – | – | – | – | – | – | – | – | –
COC(=O)[C@@H](NC(=O)c1nn(CC2CCCCC2)c2ccccc12)C(C)C [compound 10] | 0.339 ± 0.073 | 0.301 ± 0.092 | > 10000 | > 10000 | 2% | > 10000 | > 10000 | 19 | > 10 (10%) | 5.1 | 29 | 31 | – | – | – | – | – | –
COC(=O)[C@@H](NC(=O)c1nn(CC2CCCCC2)c2ccccc12)C(C)(C)C [compound 14] | 0.135 ± 0.028 | 0.222 ± 0.034 | > 10000 | 10300 ± 1700 | – | > 10000 | ~10000 | 27 | 51% | 10 | 128 | – | – | – | – | – | – | –
CCCCCn1nc(C(=O)N[C@H](C(=O)OC)C(C)C)c2ccccc21 [compound 6, AMB] | 0.866 ± 0.057 | 0.973 ± 0.104 | > 10000 | > 10000 | 15% | > 10000 | > 10000 | 42 | 15% | – | – | 28 | – | – | – | – | – | –
COC(=O)[C@@H](NC(=O)c1nn(Cc2ccc(F)cc2)c2ccccc12)C(C)C [compound 9, FUB-AMB] | 0.387 ± 0.135 | 0.536 ± 0.115 | > 10000 | > 10000 | 4% | > 10000 | > 10000 | – | 11% | 2 | 18 | 17 | – | – | – | – | – | –
O=C(Nc1cccc2ccccc12)c1cn(Cc2ccc(F)cc2)c2ccccc12 [compound 4, FDU-NNEI] | 7.42 ± 2.51 | 64 ± 15 | > 10000 | > 10000 | 13% | > 10000 | > 10000 | 20 | – | – | – | 2 | – | – | – | – | – | –
O=C(c1ccc(F)c2ccccc12)c1cn(CCCCCF)c2ccccc12 [compound 36, F-2201] | 0.852 ± 0.192 | 1.89 ± 0.57 | > 10000 | 22100 ± 12200 | – | > 10000 | > 10000 | 18 | 14% | – | – | – | – | – | – | – | – | –
CC(C)(C)[C@H](NC(=O)c1cn(CC2CCCCC2)c2ccccc12)C(N)=O [compound 22, ADB-CHMICA] | 1.24 ± 0.36 | 0.628 ± 0.231 | > 10000 | > 10000 | 17% | > 10000 | > 10000 | 8 | 14% | – | – | 8 | – | – | – | – | – | –
COC(=O)[C@@H](NC(=O)c1cn(CCCCCF)c2ccccc12)C(C)C [compound 7, MMB-2201] | 15.2 ± 5 | 19.8 ± 4.2 | > 10000 | > 10000 | 5% | > 10000 | > 10000 | 2 | – | – | – | – | – | – | – | – | – | –
CC(C)(C)[C@H](NC(=O)c1nn(CC2CCCCC2)c2ccccc12)C(N)=O [compound 25] | 0.333 ± 0.059 | 0.331 ± 0.048 | > 10000 | > 10000 | 16% | > 10000 | > 10000 | 6 | > 10 (10%) | – | – | – | – | – | – | – | – | –
